Reference: patent US6399610B1, “Transmucosal formulations of levosimendan” (Orion Corporation, priority 1997, dated 2002)

Test: Bioavailability of levosimendan following buccal and intravenous administration in dogs (plasma concentration)
Format: in vivo, beagle dogs
Conditions: for concentration at 10 min / concentration at 20 min / concentration at 40 min / concentration at 60 min / concentration at 90 min / concentration at 120 min: beagle, dog, plasma, 0.02 mg/kg; for concentration at 10 min / concentration at 20 min / concentration at 40 min / concentration at 60 min / concentration at 90 min / concentration at 120 min / Levosimendan concentration: dog plasma; for Levosimendan concentration: 0 min
Procedure: Bioavailability of levosimendan was studied in dogs following buccal and intravenous administration of 0.02 mg/kg of the compound. As experimental animals, three beagle dogs were used. At the time of dosing all animals weighed approximately 10 kg. The dogs were given levosimendan as an intravenous injection or buccal spray at one week intervals. Appropriate concentration (2 mg/ml in 96% ethanol) of the compound was prepared in 10 ml amber glass containers sealed with spray nozzles (50 μl dose, Pfeiffer). The 0.02 mg/kg buccal dose was thus obtained by spraying 2 consecutive 50 μl doses to the buccal cavity of the animals (the dosing volume being thus 0.1 ml/10 kg). The iv dose (0.1 ml/10 kg) was taken from the same bottles.
5 ml of blood was collected from the cephalic vein at the following times after administration: 0, 10, 20, 40, min, 1, 1.5 and 2 hours. Plasma was separated and stored frozen in −20 ° C. until analyzed.
Levosimendan in dog plasma was determined by a non-enantioselective method, in which an automated sample preparation technique combined with high performance liquid chromatography was used. The plasma clean-up was performed by on-line dialysis and the, dialysate was retained on a trace enrichment column. The analyte was then-separated on an analytical column and detected with a UV-detector. The limit of quantitation was 5 ng/ml and the quantitation range 5-500 ng/ml.
The apparatus comprised a Gilson ASTED (Automated Sequential Trace Enrichment System) system (Gilson Medical Electronics, Villiers-le-Bel, France). The dialysis cell was fitted with a Cuprophan cellulose membrane with a molecular cut-off of 15 kDa and the trace enrichment column was a Hypersil ODS (5.8×4.6 mm i.d., 10 μm). The chromatographic system consisted of an LKB Model 2150 pump (Bromma, Sweden) and a Lichrosorb RP-18 (250×4 mm i.d., 10 μm) column (Merck, Darmstadt, Germany). The detector was a Spectra 100 UV-VIS (Spectra-Physics, San Jose, Calif., USA). The wavelength was 380 nm. The mobile phase consisted of a 32 mM monosodium dihydrogen phosphate buffer, methanol, and tetrahydrofuran (45:65:1, v/v/v, pH 3.5). The mobile phase flow rate was 1.0 ml/min.

[1] = other: buccal spray, buccal spray 0.02 mg/kg, Dog 1
[2] = other: buccal spray, buccal spray 0.02 mg/kg, Dog 2
[3] = other: buccal spray, buccal spray 0.02 mg/kg, Dog 3

## CC1CC(=O)NN=C1c1ccc(NN=C(C#N)C#N)cc1 (single isomer, unassigned; (-)) [Levosimendan, (-)-enantiomer of [[4-(1,4,5,6-tetrahydro-4-methyl-6-oxo-3-pyridazinyl)phenyl]hydrazono]propanedinitrile]
iv, iv 0.02 mg/kg, Dog 1
  concentration at 10 min: 128 ng/mL
  concentration at 20 min: 105 ng/mL
  concentration at 40 min: 74 ng/mL
  concentration at 60 min: 58 ng/mL
  concentration at 90 min: 39 ng/mL
  concentration at 120 min: 28 ng/mL
iv, iv 0.02 mg/kg, Dog 2
  concentration at 10 min: 103 ng/mL
  concentration at 20 min: 71 ng/mL
  concentration at 40 min: 46 ng/mL
  concentration at 60 min: 36 ng/mL
  concentration at 90 min: 24 ng/mL
  concentration at 120 min: 15 ng/mL
iv, iv 0.02 mg/kg, Dog 3
  concentration at 10 min: 100 ng/mL
  concentration at 20 min: 82 ng/mL
  concentration at 40 min: 58 ng/mL
  concentration at 60 min: 46 ng/mL
  concentration at 90 min: 33 ng/mL
  concentration at 120 min: 25 ng/mL
[1]
  concentration at 10 min: 10 ng/mL
  concentration at 20 min: 24 ng/mL
  concentration at 40 min: 32 ng/mL
  concentration at 60 min: 26 ng/mL
  concentration at 90 min: 18 ng/mL
  concentration at 120 min: 13 ng/mL
[2]
  concentration at 10 min: 17 ng/mL
  concentration at 20 min: 24 ng/mL
  concentration at 40 min: 25 ng/mL
  concentration at 60 min: 22 ng/mL
  concentration at 90 min: 17 ng/mL
  concentration at 120 min: 12 ng/mL
[3]
  concentration at 10 min: 7.6 ng/mL
  concentration at 20 min: 9.4 ng/mL
  concentration at 40 min: 25 ng/mL
  concentration at 60 min: 24 ng/mL
  concentration at 90 min: 22 ng/mL
  concentration at 120 min: 16 ng/mL
Buccal spray 0.02 mg/kg, Dog 1
  Levosimendan concentration: < (< means below quantitation range)
Buccal spray 0.02 mg/kg, Dog 2
  Levosimendan concentration: < (< means below quantitation range)
Buccal spray 0.02 mg/kg, Dog 3
  Levosimendan concentration: < (< means below quantitation range)
Iv 0.02 mg/kg, Dog 1
  Levosimendan concentration: < (< means below quantitation range)
Iv 0.02 mg/kg, Dog 2
  Levosimendan concentration: < (< means below quantitation range)
Iv 0.02 mg/kg, Dog 3
  Levosimendan concentration: < (< means below quantitation range)
dogs, buccal spray 0.02 mg/kg
  Absorption into blood from the buccal spray: rapidly absorbed into blood
  Serum levels of levosimendan: steady serum levels
